Columns and labels:
HCE-T cells [1] = settings: sodium azide 1 mg·mL^−1, 1 h pre-incubation, 4 h uptake, NPs 20 μg·mL^−1, p < 0.01
Method: HCE-T cells were seeded at a density of 1 × 10^5 cells·well^−1 in a six-well plate, and the culture medium was discarded when the cell density reached 80%. […] Then, fluorescently labeled nanoparticles were added for a final concentration of 20 μg·mL^−1. After continuing the uptake experiment for 4 h, the fluorescently labeled nanoparticle solution was discarded, washed three times with PBS, and digested using trypsin. The cells were blown out with serum cultures, collected, and centrifuged at 1000 rpm. The supernatant was aspirated to remove the fluorescent material adsorbed on the cell surface. Finally, 0.3 mL of the cells suspended in PBS were transferred into flow tubes and assayed using flow cytometry (BD FACSCanto II, Becton, Dickinson and Company, New York, NY, USA). The fluorescence intensity was quantified by collecting 10,000 cells, and X-means were used for comparing the differences in cell uptake between the groups.

HCE-T cells [2] = assay: Endocytic transport mechanism in nanoparticle uptake (endocytosis inhibitors, flow cytometry); format: cell-based, human; settings: EIPA 100 μM, Chlorpromazine 30 μM, Nystain 30 μM, p < 0.01
Method: The main nanoparticle entry processes involve the clathrin structure, caveolin/lipid raft structure, and macropinocytosis. The experiment was conducted by separately adding different endocytosis transport inhibitors to examine the degree of action during nanoparticle uptake. The clathrin structural inhibitor Chlorpromazine (30 μM), the caveolin/lipid raft structure inhibitor Nystain (30 μM), and the macropinocytosis inhibitor derivative amiloride (EIPA, 100 μM) were added seperately. […] Serum-free cultures of varying endocytotic transport inhibitors were inspected using the method described above (Study of Active Transport Mechanism in Nanoparticle Uptake by HCE-T Cells).

| Molecule | inhibition of HCE-T cell uptake of (2-HP-β-CD)/PLGA NPs (HCE-T cells [2]) [%] | also measured |
| --- | --- | --- |
| [N-]=[N+]=[N-].[Na+] [sodium azide] | – | reduction of uptake of (2-HP-β-CD)/PLGA NPs (HCE-T cells [1]): 60.0% |
| CCN(c1nc(N)c(C(=O)N=C(N)N)nc1Cl)C(C)C [EIPA, 5-(N-ethyl-N-isopropyl) amiloride] | 53.3 | – |
| Nystain | 38.3 | – |
| CN(C)CCCN1c2ccccc2Sc2ccc(Cl)cc21 [Chlorpromazine] | – | inhibition at 30 µM (HCE-T cells [2]; Homo sapiens, read-out: inhibition of HCE-T cell uptake of (2-HP-β-CD)/PLGA NPs): 46.4% |
